Source: paper PMC10257182, “Discovery of senolytics using machine learning” (Nature Communications, 2023)
Structures can show the parent of a compound that is named as a salt. Where two headings read alike, the source gives them in different places.

Tests used:
Assay type in all cases: cell-based, human
[1] = tested on: senescent IMR90 ER:RAS cells (4-OHT-induced); experiment: Nuclei count (Hoechst, high content imaging) senolytic assay, oncogene-induced senescence (OIS) model, senescent cells; conditions: Homo sapiens
In short: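 Senolytic read-out as total nuclei per well by automated Hoechst imaging after 72 h compound exposure (10 μM to 10 nM, 10-point […], triplicate), relative to untreated controls. Paired cultures: IMR90 ER:RAS kept non-senescent or made senescent with 100 nM final 4-OHT; ouabain served as positive control.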

[2] = tested on: senescent A549 cells (etoposide-induced); experiment: Nuclei count senolytic assay, therapy-induced senescence (TIS) model, senescent cells; conditions: Homo sapiens, A549, Senescent cells, mean, read-out: Mean % Cell Survival; for viability at 10 µM: log (dose) [M] -5; for viability at 4.68 µM: log (dose) [M] -5.33; for viability at 2.19 µM: log (dose) [M] -5.66; for viability at 1 µM: log (dose) [M] -6; for viability at 0.468 µM: log (dose) [M] -6.33; for viability at 0.219 µM: log (dose) [M] -6.66; for viability at 0.1 µM: log (dose) [M] -7; for viability at 0.0468 µM: log (dose) [M] -7.33; for viability at 0.0219 µM: log (dose) [M] -7.66; for viability at 0.01 µM: log (dose) [M] -8
In short: (§1)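 Nuclei counted by Hoechst 33342 imaging after fixation, following 72 h treatment with compound at 10 nM–10 μM (10-point […], triplicates). Targets were control A549 cells and A549 rendered senescent by 48 h 100 μM etoposide plus 3 days recovery.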

[3] = tested on: non-senescent control A549 cells; experiment: Nuclei count senolytic assay, TIS model, non-senescent control cells; conditions: Homo sapiens, A549, Control cells, mean, read-out: Mean % Cell Survival; for viability at 10 µM: log (dose) [M] -5; for viability at 4.68 µM: log (dose) [M] -5.33; for viability at 2.19 µM: log (dose) [M] -5.66; for viability at 1 µM: log (dose) [M] -6; for viability at 0.468 µM: log (dose) [M] -6.33; for viability at 0.219 µM: log (dose) [M] -6.66; for viability at 0.1 µM: log (dose) [M] -7; for viability at 0.0468 µM: log (dose) [M] -7.33; for viability at 0.0219 µM: log (dose) [M] -7.66; for viability at 0.01 µM: log (dose) [M] -8
In short: as §1

[4] = IMR-90, 72 h, Senescent, log (dose) [M] -5, 72 h, mean n=3 (Fig 3C), read-out: Mean % Cell Survival
[5] = IMR-90, 72 h, Senescent, log (dose) [M] -5.33, 72 h, mean n=3 (Fig 3C), read-out: Mean % Cell Survival
[6] = IMR-90, 72 h, Senescent, log (dose) [M] -5.66, 72 h, mean n=3 (Fig 3C), read-out: Mean % Cell Survival
[7] = IMR-90, 72 h, Senescent, log (dose) [M] -6, 72 h, mean n=3 (Fig 3C), read-out: Mean % Cell Survival
[8] = IMR-90, 72 h, Senescent, log (dose) [M] -6.33, 72 h, mean n=3 (Fig 3C), read-out: Mean % Cell Survival
[9] = IMR-90, 72 h, Senescent, log (dose) [M] -6.66, 72 h, mean n=3 (Fig 3C), read-out: Mean % Cell Survival
[10] = IMR-90, 72 h, Senescent, log (dose) [M] -7, 72 h, mean n=3 (Fig 3C), read-out: Mean % Cell Survival
[11] = IMR-90, 72 h, Senescent, log (dose) [M] -7.33, 72 h, mean n=3 (Fig 3C), read-out: Mean % Cell Survival
[12] = IMR-90, 72 h, Senescent, log (dose) [M] -7.66, 72 h, mean n=3 (Fig 3C), read-out: Mean % Cell Survival
[13] = IMR-90, 72 h, Senescent, log (dose) [M] -8, 72 h, mean n=3 (Fig 3C), read-out: Mean % Cell Survival
[14] = IMR-90, Senescent cells, log (dose) [M] -6, individual replicates, SUP FIG 4C, read-out: % Cell Survival
[15] = IMR-90, Senescent cells, log (dose) [M] -7, individual replicates, SUP FIG 4C, read-out: % Cell Survival
[16] = IMR-90, Senescent, log (dose) [M] -5, read-out: % Cell Survival
[17] = IMR-90, Senescent, log (dose) [M] -5.33, read-out: % Cell Survival
[18] = IMR-90, Senescent, log (dose) [M] -5.66, read-out: % Cell Survival
[19] = IMR-90, Senescent, log (dose) [M] -6, read-out: % Cell Survival
[20] = IMR-90, Senescent, log (dose) [M] -6.33, read-out: % Cell Survival
[21] = IMR-90, Senescent, log (dose) [M] -7, read-out: % Cell Survival
[22] = IMR-90, Senescent, log (dose) [M] -7.33, read-out: % Cell Survival
[23] = IMR-90, Senescent, log (dose) [M] -8, read-out: % Cell Survival

COC[C@H]1C[C@@H](c2nc(-c3ccc4c(c3)COc3cc5c(ccc6nc([C@@H]7CC[C@H](C)N7C(=O)[C@@H](NC(=O)OC)C(C)C)[nH]c65)cc3-4)c[nH]2)N(C(=O)[C@H](NC(=O)OC)c2ccccc2)C1 [Velpatasvir, velpatasvir, reference compound]
viability at 10 µM [1, 4]: 97.8% | viability at 4.677 µM [1, 5]: 116% | viability at 2.188 µM [1, 6]: 102% | viability at 1 µM [1, 7]: 112% | viability at 0.4677 µM [1, 8]: 78.2% | viability at 0.2188 µM [1, 9]: 83.6% | viability at 0.1 µM [1, 10]: 88.6% | viability at 0.04677 µM [1, 11]: 91.5% | viability at 0.02188 µM [1, 12]: 108% | viability at 0.01 µM [1, 13]: 100% | viability at 10 µM ([1]; IMR-90, Senescent cells, log (dose) [M] -5, individual replicates, SUP FIG 4C, read-out: % Cell Survival): 100% | viability at 2.188 µM ([1]; IMR-90, Senescent cells, log (dose) [M] -5.66, individual replicates, SUP FIG 4C, read-out: % Cell Survival): 111% | viability at 1 µM [1, 14]: 108% | viability at 0.2188 µM ([1]; IMR-90, Senescent cells, log (dose) [M] -6.66, individual replicates, SUP FIG 4C, read-out: % Cell Survival): 90.3% | viability at 0.1 µM [1, 15]: 89% | viability at 0.04677 µM ([1]; IMR-90, Senescent cells, log (dose) [M] -7.33, individual replicates, SUP FIG 4C, read-out: % Cell Survival): 85.1% | viability at 0.02188 µM ([1]; IMR-90, Senescent cells, log (dose) [M] -7.66, individual replicates, SUP FIG 4C, read-out: % Cell Survival): 103% | viability at 0.01 µM ([1]; IMR-90, Senescent cells, log (dose) [M] -8, individual replicates, SUP FIG 4C, read-out: % Cell Survival): 94.1% | viability at 10 µM [2]: 114% | viability at 4.68 µM [2]: 105% | viability at 2.19 µM [2]: 120% | viability at 1 µM [2]: 122% | viability at 0.468 µM [2]: 122% | viability at 0.219 µM [2]: 113% | viability at 0.1 µM [2]: 112% | viability at 0.0468 µM [2]: 115% | viability at 0.0219 µM [2]: 91.3% | viability at 0.01 µM [2]: 104% | viability at 10 µM [3]: 80.9% | viability at 4.68 µM [3]: 84.4% | viability at 2.19 µM [3]: 80.3% | viability at 1 µM [3]: 52.9% | viability at 0.468 µM [3]: 93.4% | viability at 0.219 µM [3]: 28.7% | viability at 0.1 µM [3]: 88.2% | viability at 0.0468 µM [3]: 89.2% | viability at 0.0219 µM [3]: 92.1% | viability at 0.01 µM [3]: 96.1%

Cc1cnc(C(=O)N[C@H]2CCCCC/C=C\[C@@H]3C[C@@]3(C(=O)NS(=O)(=O)C3CC3)NC(=O)[C@@H]3C[C@@H](Oc4nc5ccccc5c5ccccc45)CN3C2=O)cn1 [Paritaprevir, paritaprevir, reference compound]
viability at 10 µM [1, 4]: 69.5% | viability at 4.677 µM [1, 5]: 86.5% | viability at 2.188 µM [1, 6]: 70.9% | viability at 1 µM [1, 7]: 67.9% | viability at 0.4677 µM [1, 8]: 78.9% | viability at 0.2188 µM [1, 9]: 76.2% | viability at 0.1 µM [1, 10]: 79.8% | viability at 0.04677 µM [1, 11]: 84.7% | viability at 0.02188 µM [1, 12]: 86.9% | viability at 0.01 µM [1, 13]: 70.3% | viability at 4.677 µM ([1]; IMR-90, Senescent cells, log (dose) [M] -5.33, individual replicates, SUP FIG 4C, read-out: % Cell Survival): 87.6% | viability at 0.1 µM [1, 15]: 75% | viability at 10 µM [1, 16]: 115% | viability at 4.677 µM [1, 17]: 110% | viability at 2.188 µM [1, 18]: 113% | viability at 1 µM [1, 19]: 105% | viability at 0.4677 µM [1, 20]: 111% | viability at 0.1 µM [1, 21]: 112% | viability at 0.04677 µM [1, 22]: 118% | viability at 0.01 µM [1, 23]: 107% | viability at 10 µM [2]: 113% | viability at 4.68 µM [2]: 107% | viability at 2.19 µM [2]: 112% | viability at 1 µM [2]: 108% | viability at 0.468 µM [2]: 112% | viability at 0.219 µM [2]: 104% | viability at 0.1 µM [2]: 112% | viability at 0.0468 µM [2]: 115% | viability at 0.0219 µM [2]: 103% | viability at 0.01 µM [2]: 103% | viability at 10 µM [3]: 96.8% | viability at 4.68 µM [3]: 93% | viability at 2.19 µM [3]: 96% | viability at 1 µM [3]: 95.4% | viability at 0.468 µM [3]: 98.6% | viability at 0.219 µM [3]: 97.7% | viability at 0.1 µM [3]: 95.4% | viability at 0.0468 µM [3]: 95.7% | viability at 0.0219 µM [3]: 95.5% | viability at 0.01 µM [3]: 101%

CC[C@]1(O)C[C@@H]2CN(CCc3c([nH]c4ccccc34)[C@@](C(=O)OC)(c3cc4c(cc3OC)N(C)[C@H]3[C@@](O)(C(=O)OC)[C@H](OC(C)=O)[C@]5(CC)C=CCN6CC[C@]43[C@@H]65)C2)C1 [Vinblastine sulfate, vinblastine sulfate, reference compound]
viability at 10 µM [1, 4]: 54.4% | viability at 4.677 µM [1, 5]: 77.2% | viability at 2.188 µM [1, 6]: 58.1% | viability at 1 µM [1, 7]: 67.1% | viability at 0.4677 µM [1, 8]: 61.7% | viability at 0.2188 µM [1, 9]: 87% | viability at 0.1 µM [1, 10]: 73.9% | viability at 0.04677 µM [1, 11]: 108% | viability at 0.02188 µM [1, 12]: 59.7% | viability at 0.01 µM [1, 13]: 92.6% | viability at 1 µM [1, 14]: 70.9% | viability at 10 µM [1, 16]: 89.1% | viability at 4.677 µM [1, 17]: 88% | viability at 2.188 µM [1, 18]: 86.9% | viability at 1 µM [1, 19]: 68.2% | viability at 0.4677 µM [1, 20]: 96.2% | viability at 0.2188 µM ([1]; IMR-90, Senescent, log (dose) [M] -6.66, read-out: % Cell Survival): 103% | viability at 0.1 µM [1, 21]: 109% | viability at 0.04677 µM [1, 22]: 92.4% | viability at 0.02188 µM ([1]; IMR-90, Senescent, log (dose) [M] -7.66, read-out: % Cell Survival): 112% | viability at 0.01 µM [1, 23]: 114% | viability at 10 µM [2]: 88.8% | viability at 4.68 µM [2]: 83.2% | viability at 2.19 µM [2]: 90.4% | viability at 1 µM [2]: 72.2% | viability at 0.468 µM [2]: 92.1% | viability at 0.219 µM [2]: 97.3% | viability at 0.1 µM [2]: 103% | viability at 0.0468 µM [2]: 99.9% | viability at 0.0219 µM [2]: 103% | viability at 0.01 µM [2]: 104% | viability at 10 µM [3]: 47.4% | viability at 4.68 µM [3]: 46.3% | viability at 2.19 µM [3]: 48.5% | viability at 1 µM [3]: 47% | viability at 0.468 µM [3]: 45.9% | viability at 0.219 µM [3]: 49.9% | viability at 0.1 µM [3]: 52.9% | viability at 0.0468 µM [3]: 66.7% | viability at 0.0219 µM [3]: 69.2% | viability at 0.01 µM [3]: 78.7%
